Experiments:
[1] = test system: rat retinal photoreceptor; assay: Electroretinogram of rats treated with different MNU dosages; details: for Number of Eyes with extinguished electroretinogram: n = 10
[2] = test system: rat retinal photoreceptor cells; assay: Pathological examination (damage score) of retinal photoreceptor cells in rats treated with different MNU dosages

## CN(N=O)C(N)=O [MNU, N-methyl-N-nitrosourea]
[1]; MNU 40 mg/kg, 7 d
  Number of Eyes with extinguished electroretinogram: 8
[1]; MNU 40 mg/kg, 10 d
  a-wave amplitude of electroretinogram: 9.54 ± 12.89
  a-wave latent period of electroretinogram: 6.64 ± 8.61
  b-wave amplitude of electroretinogram: 24.25 ± 31.58
  b-wave latent period of electroretinogram: 27.31 ± 35.56
  Number of Eyes with extinguished electroretinogram: 6
[1]; MNU 45 mg/kg, 12 h
  a-wave amplitude of electroretinogram: 0
  a-wave latent period of electroretinogram: 6.60 ± 9.55
  b-wave amplitude of electroretinogram: 0
  b-wave latent period of electroretinogram: 25.08 ± 8.55
  Number of Eyes with extinguished electroretinogram: 6
[1]; MNU 45 mg/kg, 1 d
  a-wave amplitude of electroretinogram: 0
  a-wave latent period of electroretinogram: 0
  b-wave amplitude of electroretinogram: 0
  b-wave latent period of electroretinogram: 0
  Number of Eyes with extinguished electroretinogram: 10
[1]; MNU 45 mg/kg, 3 d
  a-wave amplitude of electroretinogram: 0
  a-wave latent period of electroretinogram: 0
  b-wave amplitude of electroretinogram: 0
  b-wave latent period of electroretinogram: 0
  Number of Eyes with extinguished electroretinogram: 10
[1]; MNU 45 mg/kg, 7 d
  a-wave amplitude of electroretinogram: 0
  a-wave latent period of electroretinogram: 0
  b-wave amplitude of electroretinogram: 0
  b-wave latent period of electroretinogram: 0
  Number of Eyes with extinguished electroretinogram: 10
[1]; MNU 45 mg/kg, 10 d
  a-wave amplitude of electroretinogram: 4.89 ± 10.48
  a-wave latent period of electroretinogram: 6.47 ± 7.33
  b-wave amplitude of electroretinogram: 11.31 ± 23.93
  b-wave latent period of electroretinogram: 14.42 ± 30.46
  Number of Eyes with extinguished electroretinogram: 8
[1]; MNU 50 mg/kg, 12 h
  a-wave amplitude of electroretinogram: 0
  a-wave latent period of electroretinogram: 0
  Number of Eyes with extinguished electroretinogram: 10
[1]; MNU 50 mg/kg, 1 d
  a-wave amplitude of electroretinogram: 0
  a-wave latent period of electroretinogram: 0
  Number of Eyes with extinguished electroretinogram: 10
[1]; MNU 50 mg/kg, 3 d
  a-wave amplitude of electroretinogram: 0
  a-wave latent period of electroretinogram: 0
  Number of Eyes with extinguished electroretinogram: 10
[1]; MNU 50 mg/kg, 7 d
  a-wave amplitude of electroretinogram: 0
  a-wave latent period of electroretinogram: 0
  Number of Eyes with extinguished electroretinogram: 10
[1]; MNU 50 mg/kg, 10 d
  a-wave amplitude of electroretinogram: 0
  a-wave latent period of electroretinogram: 0
  Number of Eyes with extinguished electroretinogram: 10
[2]
  minimum dosage that could cause damage to the entire outer nuclear layer cell of rat retinal: 40 mg/kg
[2]; MNU 30 mg/kg, 12 h
  Damage score of rat retinal photoreceptor cells: 0.20 ± 0.42
[2]; MNU 30 mg/kg, 1 d
  Damage score of rat retinal photoreceptor cells: 0.40 ± 0.52
[2]; MNU 30 mg/kg, 3 d
  Damage score of rat retinal photoreceptor cells: 0.40 ± 0.52
[2]; MNU 30 mg/kg, 7 d
  Damage score of rat retinal photoreceptor cells: 0.20 ± 0.42
[2]; MNU 30 mg/kg, 10 d
  Damage score of rat retinal photoreceptor cells: 0
[2]; MNU 35 mg/kg, 12 h
  Damage score of rat retinal photoreceptor cells: 0.20 ± 0.42
[2]; MNU 35 mg/kg, 1 d
  Damage score of rat retinal photoreceptor cells: 0.60 ± 0.52
[2]; MNU 35 mg/kg, 3 d
  Damage score of rat retinal photoreceptor cells: 0.80 ± 0.42
[2]; MNU 35 mg/kg, 7 d
  Damage score of rat retinal photoreceptor cells: 0.40 ± 0.52
[2]; MNU 35 mg/kg, 10 d
  Damage score of rat retinal photoreceptor cells: 0
[2]; MNU 40 mg/kg, 12 h
  Damage score of rat retinal photoreceptor cells: 1.00 ± 0.67
[2]; MNU 40 mg/kg, 1 d
  Damage score of rat retinal photoreceptor cells: 2.20 ± 1.03
[2]; MNU 40 mg/kg, 3 d
  Damage score of rat retinal photoreceptor cells: 4.60 ± 3.10
[2]; MNU 40 mg/kg, 7 d
  Damage score of rat retinal photoreceptor cells: 7.60 ± 6.29
[2]; MNU 40 mg/kg, 10 d
  Damage score of rat retinal photoreceptor cells: 7.40 ± 6.44
[2]; MNU 45 mg/kg, 12 h
  Damage score of rat retinal photoreceptor cells: 1.6 ± 0.52
[2]; MNU 45 mg/kg, 1 d
  Damage score of rat retinal photoreceptor cells: 4.00 ± 2.31
[2]; MNU 45 mg/kg, 3 d
  Damage score of rat retinal photoreceptor cells: 6.80 ± 5.27
[2]; MNU 45 mg/kg, 7 d
  Damage score of rat retinal photoreceptor cells: 9.60 ± 5.95
[2]; MNU 45 mg/kg, 10 d
  Damage score of rat retinal photoreceptor cells: 9.20 ± 6.20
[2]; MNU 50 mg/kg, 12 h
  Damage score of rat retinal photoreceptor cells: 2.40 ± 1.43
[2]; MNU 50 mg/kg, 1 d
  Damage score of rat retinal photoreceptor cells: 6.80 ± 5.27
[2]; MNU 50 mg/kg, 3 d
  Damage score of rat retinal photoreceptor cells: 10.04 ± 5.06
[2]; MNU 50 mg/kg, 7 d
  Damage score of rat retinal photoreceptor cells: 11.20 ± 5.27
[2]; MNU 50 mg/kg, 10 d
  Damage score of rat retinal photoreceptor cells: 11.20 ± 5.27

From patent US20090022757A1, “Method for treating photoreceptor cell degeneration” (priority 2007, published 2009)
